This is an account of results in ChEMBL document CHEMBL1122727, “Adrenoceptor and tetrabenazine antagonism activities of some pyridinyltetrahydropyridines” (J Med Chem, 1984).

Assay [1] relates to Mus musculus. The assay can be described thus: Compound was evaluated for its antagonistic effect on the Tetrabenazine-induced ptosis following intravenous administration. It counts as functional.
For assay [2], the target named is T1, Adrenergic receptor alpha-2 (Rattus norvegicus, UniProt P22086+P19328+P22909).
T1 sequence (P22086 whole entry): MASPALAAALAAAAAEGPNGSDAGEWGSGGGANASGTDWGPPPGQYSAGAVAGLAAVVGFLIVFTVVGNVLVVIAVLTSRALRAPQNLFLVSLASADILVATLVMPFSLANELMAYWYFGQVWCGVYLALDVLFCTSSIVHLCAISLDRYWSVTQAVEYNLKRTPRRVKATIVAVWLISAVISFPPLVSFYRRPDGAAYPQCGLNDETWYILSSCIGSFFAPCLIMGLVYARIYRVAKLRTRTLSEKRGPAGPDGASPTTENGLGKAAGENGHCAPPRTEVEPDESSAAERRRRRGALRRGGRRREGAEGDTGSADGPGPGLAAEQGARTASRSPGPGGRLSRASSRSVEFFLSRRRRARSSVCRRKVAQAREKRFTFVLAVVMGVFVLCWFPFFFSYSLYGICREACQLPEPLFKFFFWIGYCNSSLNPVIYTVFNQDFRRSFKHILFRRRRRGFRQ
T1 sequence (P19328 whole entry): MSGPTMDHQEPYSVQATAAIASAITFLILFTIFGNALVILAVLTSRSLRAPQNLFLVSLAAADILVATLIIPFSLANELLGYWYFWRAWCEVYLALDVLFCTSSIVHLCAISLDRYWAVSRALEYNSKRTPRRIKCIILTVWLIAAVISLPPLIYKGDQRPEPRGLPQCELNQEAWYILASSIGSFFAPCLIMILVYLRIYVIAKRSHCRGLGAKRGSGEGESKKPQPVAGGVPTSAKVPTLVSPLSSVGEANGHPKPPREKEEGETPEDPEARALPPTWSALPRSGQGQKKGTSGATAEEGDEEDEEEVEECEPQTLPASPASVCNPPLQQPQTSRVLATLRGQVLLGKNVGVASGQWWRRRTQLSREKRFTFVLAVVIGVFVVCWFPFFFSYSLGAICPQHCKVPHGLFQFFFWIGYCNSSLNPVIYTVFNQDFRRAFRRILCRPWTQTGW
T1 sequence (P22909 whole entry): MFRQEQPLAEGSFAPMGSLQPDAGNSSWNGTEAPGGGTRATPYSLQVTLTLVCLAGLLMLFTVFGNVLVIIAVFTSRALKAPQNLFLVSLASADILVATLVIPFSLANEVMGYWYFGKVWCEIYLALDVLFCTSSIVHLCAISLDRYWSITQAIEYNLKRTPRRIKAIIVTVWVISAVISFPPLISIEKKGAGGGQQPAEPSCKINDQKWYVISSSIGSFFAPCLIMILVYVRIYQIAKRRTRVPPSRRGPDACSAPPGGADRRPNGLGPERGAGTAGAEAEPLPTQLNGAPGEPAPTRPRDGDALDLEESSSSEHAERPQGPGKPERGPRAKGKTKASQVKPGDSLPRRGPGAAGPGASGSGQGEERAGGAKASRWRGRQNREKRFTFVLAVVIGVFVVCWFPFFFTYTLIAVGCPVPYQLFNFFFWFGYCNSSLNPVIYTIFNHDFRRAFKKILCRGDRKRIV
The assay can be described thus: Antagonistic activity against clonidine-stimulated rat vas deferens presynaptic alpha-2 adrenergic receptor. In kind it is functional, tissue-based.

For assay [3], the target named is T2, Adrenergic receptor alpha-1 (Rattus norvegicus, UniProt P15823+P23944+P43140).
T2 sequence (P15823 whole entry): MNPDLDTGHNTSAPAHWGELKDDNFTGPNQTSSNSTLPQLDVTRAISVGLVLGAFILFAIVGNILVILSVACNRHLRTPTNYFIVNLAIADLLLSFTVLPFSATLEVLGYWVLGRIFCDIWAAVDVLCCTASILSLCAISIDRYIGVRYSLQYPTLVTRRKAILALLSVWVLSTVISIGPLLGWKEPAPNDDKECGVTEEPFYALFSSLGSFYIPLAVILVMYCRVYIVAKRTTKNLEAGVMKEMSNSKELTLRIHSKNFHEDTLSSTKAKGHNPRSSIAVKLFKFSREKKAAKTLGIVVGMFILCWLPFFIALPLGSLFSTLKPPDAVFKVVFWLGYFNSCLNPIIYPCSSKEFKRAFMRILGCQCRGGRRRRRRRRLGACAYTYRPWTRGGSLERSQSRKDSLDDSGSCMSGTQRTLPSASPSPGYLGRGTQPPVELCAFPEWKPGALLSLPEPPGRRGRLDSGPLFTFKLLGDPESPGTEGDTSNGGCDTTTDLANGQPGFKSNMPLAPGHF
T2 sequence (P23944 whole entry): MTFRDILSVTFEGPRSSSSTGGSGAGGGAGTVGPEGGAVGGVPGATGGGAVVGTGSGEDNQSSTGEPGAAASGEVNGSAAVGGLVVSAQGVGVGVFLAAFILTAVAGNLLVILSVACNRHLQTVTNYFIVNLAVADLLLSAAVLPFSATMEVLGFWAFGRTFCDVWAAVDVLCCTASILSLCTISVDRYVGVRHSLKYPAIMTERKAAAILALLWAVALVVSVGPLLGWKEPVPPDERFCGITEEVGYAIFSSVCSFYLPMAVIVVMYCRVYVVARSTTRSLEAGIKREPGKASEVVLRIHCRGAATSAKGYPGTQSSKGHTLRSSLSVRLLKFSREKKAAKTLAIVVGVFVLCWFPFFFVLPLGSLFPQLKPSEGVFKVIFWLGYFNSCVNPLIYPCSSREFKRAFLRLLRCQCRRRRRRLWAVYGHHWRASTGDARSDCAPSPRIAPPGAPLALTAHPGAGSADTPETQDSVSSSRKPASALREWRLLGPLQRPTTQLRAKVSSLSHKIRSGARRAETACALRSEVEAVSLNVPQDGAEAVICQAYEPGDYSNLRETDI
T2 sequence (P43140 whole entry): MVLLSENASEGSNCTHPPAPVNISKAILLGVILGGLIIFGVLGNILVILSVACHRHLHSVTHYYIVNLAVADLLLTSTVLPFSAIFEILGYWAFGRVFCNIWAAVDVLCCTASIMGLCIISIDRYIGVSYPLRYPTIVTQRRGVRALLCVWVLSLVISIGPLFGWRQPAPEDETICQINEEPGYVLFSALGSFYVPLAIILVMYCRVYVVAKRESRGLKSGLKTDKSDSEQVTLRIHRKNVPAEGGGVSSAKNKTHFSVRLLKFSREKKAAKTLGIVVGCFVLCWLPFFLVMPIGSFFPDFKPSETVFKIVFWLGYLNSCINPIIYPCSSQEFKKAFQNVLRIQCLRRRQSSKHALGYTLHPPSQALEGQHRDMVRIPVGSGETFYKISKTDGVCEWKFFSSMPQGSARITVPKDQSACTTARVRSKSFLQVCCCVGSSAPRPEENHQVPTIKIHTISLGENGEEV
The assay can be described thus: Antagonistic activity upon postsynaptic alpha-1 adrenergic receptor was determined in the rat isolated, field stimulated vas deferens using methoxamine. It counts as functional, tissue-based.

Assay [4] can be described thus: Selectivity ratio expressed as the ratio of -log methoxamine pA2 to -log clonidine pA2.
Assay [5] in a line: Relative binding to alpha-1a and alpha-2 adrenergic receptors (ratio of Ki-prazosin and Ki-clonidine).
Assay [6] can be described thus: Displacement of [3H]clonidine from calf cerebral cortex alpha-2 adrenergic receptor. It counts as tissue-based, Bos taurus. (In general: Loss of bound radioactivity is the signal in a displacement assay; it reports binding, not function.)
Assay [7] has as its target T3, Alpha-1A adrenergic receptor (Bos taurus, UniProt P18130).
T3 sequence (P18130 whole entry): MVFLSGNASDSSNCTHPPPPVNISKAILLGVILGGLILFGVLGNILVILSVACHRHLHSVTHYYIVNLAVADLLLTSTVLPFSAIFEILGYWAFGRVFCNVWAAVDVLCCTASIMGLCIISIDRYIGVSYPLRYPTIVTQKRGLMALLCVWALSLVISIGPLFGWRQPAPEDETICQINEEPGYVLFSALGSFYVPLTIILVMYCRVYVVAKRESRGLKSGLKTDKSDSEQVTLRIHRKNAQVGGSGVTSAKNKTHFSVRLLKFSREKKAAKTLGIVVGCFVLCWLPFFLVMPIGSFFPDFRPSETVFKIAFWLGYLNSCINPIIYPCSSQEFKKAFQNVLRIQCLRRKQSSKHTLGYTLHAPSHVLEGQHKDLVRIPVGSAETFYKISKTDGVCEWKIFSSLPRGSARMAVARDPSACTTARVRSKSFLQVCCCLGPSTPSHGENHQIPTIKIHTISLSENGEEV
The experiment in a line: Displacement of [3H]prazosin from calf cerebral cortex alpha-1 adrenergic receptor. In kind it is tissue-based.

Structures are written as SMILES.

In assay [1], `CN1CC=C(c2ccccn2)CC1` came in with a 50% effective dose (ED50) of 0.5 mg/kg. Moreover, the pA2 in assay [2] stood at 6.2; in assay [3], 5.4. The Selectivity ratio amounted to 6 in assay [4] and 44 in assay [5]. The results for the inhibition constant (Ki) in assay [6] and in assay [7] were 57 nM and 2500 nM, respectively.
The compound `CNCCCN1c2ccccc2CCc2ccccc21` [DESIPRAMINE] yielded a median effective dose (ED50) in assay [1] of 0.07 mg/kg.
Consider `CN1CC=C(c2ncccc2F)CC1`, for which it took a dose of 0.35 mg/kg to reach the 50% effect level in assay [1] (ED50). The results for the pA2 in assay [2] and in assay [3] were 6.8 and 5.3, respectively. In addition, the figures for the Selectivity ratio in assay [4] and in assay [5] were 32 and 150, respectively. The Ki in assay [6] came out at 22 nM; in assay [7], 3300 nM.
For `Cc1cccnc1C1=CCN(C)CC1`, the pA2 in assay [2] is on record as < 5.8. Besides, in assay [5], the Selectivity ratio is 15. For the same compound, the Ki in assay [6] amounted to 170 nM; in assay [7] it was 2500 nM.
Take `C1=C(c2ccccn2)CCNC1`: the pA2 in assay [2] was < 5.7. Besides, the Selectivity ratio in assay [5] is 28. Moreover, the inhibitory constant (Ki) in assay [6] is 144 nM; in assay [7], 4000 nM.
In the case of `CN1CC=C(c2ccncc2F)CC1`, the pA2 in assay [2] is listed as < 5.8. Besides, in assay [5], the Selectivity ratio is 11. Moreover, the results for the inhibition constant Ki in assay [6] and in assay [7] were 720 nM and 7700 nM, respectively.
Taken in the same sequence, the figures for `CN1CCC(c2ccccn2)CC1` were < 5.8, 6, 420 nM and 2500 nM.
On the same counts, the results for `CN1CC=C(c2cccnc2)CC1` are < 5.8, 6.4, 750 nM and 4800 nM.
Consider `c1ccc(N2CCNCC2)nc1`, for which the Selectivity ratio in assay [4] stood at 5; in assay [5], 65. In assay [6], this compound came in with a Ki of 37 nM.
Take `CN1CCN(c2ncccc2F)CC1`: the Selectivity ratio stood at 16 in assay [4] and 98 in assay [5]. Also, in assay [6], the Ki worked out at 5 nM.
Regarding `CN1CC=C(c2ncccc2Cl)CC1`, the pA2 in assay [2] is listed as < 5.9. The Selectivity ratio in assay [5] was determined as 31. In addition, the inhibition constant Ki was 72 nM in assay [6] and 2260 nM in assay [7].

Broadly, the ED50 is the dose that gives a 50% effect, or the effect in half of the subjects. A higher ED50 goes with weaker potency. By pA2 is commonly meant a measure of antagonist potency on a negative log scale. The low end stands for lower antagonist potency, the high end for higher antagonist potency. As usually defined, the Ki is the equilibrium dissociation constant of an inhibitor or competing ligand from its target. A high value points to a looser hold on the target.
